According to ChEMBL document CHEMBL1201862, “PubChem BioAssay data set” (2004):
Values belong to the molecule of their own block, whether it stands above or below them. Active and inactive are the calls of the source.

Columns and labels:
[1] = target: T1, Neuropeptide Y receptor type 2 (Homo sapiens, UniProt P49146); assay: Fluorescence-based counterscreen for agonists of NPY-Y1: cell-based high-throughput dose response assay for agonists of NPY-Y2.; assay type: functional
T1 sequence (P49146 whole entry): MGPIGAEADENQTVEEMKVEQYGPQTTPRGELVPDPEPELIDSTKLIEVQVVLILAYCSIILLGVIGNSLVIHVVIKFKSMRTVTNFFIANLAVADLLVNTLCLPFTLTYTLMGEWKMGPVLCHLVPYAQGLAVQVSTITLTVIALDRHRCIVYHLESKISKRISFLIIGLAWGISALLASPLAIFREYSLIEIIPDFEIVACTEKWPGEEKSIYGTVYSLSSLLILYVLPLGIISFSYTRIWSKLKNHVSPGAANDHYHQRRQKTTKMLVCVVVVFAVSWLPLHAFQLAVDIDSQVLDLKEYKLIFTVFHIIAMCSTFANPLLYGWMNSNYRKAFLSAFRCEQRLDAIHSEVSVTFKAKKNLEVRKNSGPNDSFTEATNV

[2] = system: HEK293; assay: Fluorescence-based counterscreen for potentiators or agonists of NPY-Y1: cell-based high-throughput dose response assay for inhibitors of cyclic nucleotide gated ion channel (CNGC) activity. In this assay, the parental HEK293 cell line transfected with a cyclic-nucleotide gated ion channel (CNGC)-based cAMP sensor is used to measure inhibition of isoproterenol-induced CNGC …; assay type: functional; conditions: Homo sapiens
[3] = target: T2, Neuropeptide Y receptor type 1 (Homo sapiens, UniProt P25929); assay: Fluorescence-based dose response cell-based high-throughput screening assay for agonists of NPY-Y1. [Related pubchem assays: 1697 (Screening assay (NPY-Y1 agonists).), 1359 (Screening assay (NPY-Y2 potentiators or agonists).), 1304 (Screening assay (NPY-Y1 potentiators or agonists).), 1704 (Screening assay (CNGC inhibitors).), 1791 (Summary AID.)]; assay type: functional
T2 sequence (P25929 whole entry): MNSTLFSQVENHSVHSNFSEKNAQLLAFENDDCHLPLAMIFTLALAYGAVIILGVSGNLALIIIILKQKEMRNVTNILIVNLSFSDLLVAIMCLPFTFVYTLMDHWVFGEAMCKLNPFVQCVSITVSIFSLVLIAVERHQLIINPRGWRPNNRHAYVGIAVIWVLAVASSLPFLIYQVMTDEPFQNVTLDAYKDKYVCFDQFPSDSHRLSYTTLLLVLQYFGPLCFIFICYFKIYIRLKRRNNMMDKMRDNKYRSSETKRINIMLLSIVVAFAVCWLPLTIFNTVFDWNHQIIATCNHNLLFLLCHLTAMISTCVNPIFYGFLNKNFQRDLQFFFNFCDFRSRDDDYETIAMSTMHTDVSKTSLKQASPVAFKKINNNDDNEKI

[4] = target: T3, Tyrosine-protein phosphatase non-receptor type 7 (Homo sapiens, UniProt P35236); assay type: functional
T3 sequence (P35236 whole entry): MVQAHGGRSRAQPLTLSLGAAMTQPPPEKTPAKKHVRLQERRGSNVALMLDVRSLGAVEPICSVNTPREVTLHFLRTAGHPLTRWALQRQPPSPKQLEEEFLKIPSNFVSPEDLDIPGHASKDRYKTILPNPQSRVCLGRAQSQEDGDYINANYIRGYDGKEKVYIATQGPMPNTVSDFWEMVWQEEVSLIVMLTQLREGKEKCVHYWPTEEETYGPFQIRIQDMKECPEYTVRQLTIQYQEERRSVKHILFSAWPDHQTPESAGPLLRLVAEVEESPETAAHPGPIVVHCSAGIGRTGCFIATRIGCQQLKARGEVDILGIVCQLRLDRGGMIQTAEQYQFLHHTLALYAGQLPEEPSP

[5] = target: Glyceraldehyde-3-phosphate dehydrogenase (Homo sapiens, UniProt P04406)
[6] = target: Heat shock cognate 71 kDa protein (Homo sapiens, UniProt P11142); assay: In Vitro Hsc70 Dose Response Fluorescence Polarization Assay. [Related pubchem assays: 1072 ]
[7] = target: Heat shock 70 kDa protein 1A (Homo sapiens, UniProt P0DMV8); assay: Hsp70 inhibitors, SAR follow-up, biochemical, fluorescence polarization (AID 1072)
[8] = target: T4, Dual specificity protein phosphatase 6 (Rattus norvegicus, UniProt Q64346)
T4 sequence (Q64346 whole entry): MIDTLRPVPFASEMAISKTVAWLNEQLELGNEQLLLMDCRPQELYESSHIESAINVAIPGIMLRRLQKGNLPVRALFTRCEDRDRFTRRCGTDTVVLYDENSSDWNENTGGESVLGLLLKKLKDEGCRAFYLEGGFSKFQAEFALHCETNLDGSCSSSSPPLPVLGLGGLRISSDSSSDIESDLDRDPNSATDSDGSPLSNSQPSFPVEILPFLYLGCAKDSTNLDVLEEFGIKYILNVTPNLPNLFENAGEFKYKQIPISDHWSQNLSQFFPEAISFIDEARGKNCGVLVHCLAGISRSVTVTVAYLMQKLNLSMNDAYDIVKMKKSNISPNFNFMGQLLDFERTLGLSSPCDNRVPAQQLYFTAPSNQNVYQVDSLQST

[9] = target: T4, Dual specificity protein phosphatase 6; assay type: functional
[10] = target: C-C chemokine receptor type 6 (Homo sapiens, UniProt P51684); assay: CCR6 receptor antagonists, dose response, cell-based, luminescent beta-arrestin readout (AID 504728); assay type: functional
[11] = target: Beta-galactosidase (Escherichia coli, UniProt Q8VNN2); assay: beta-galactosidase enzyme inhibitors and activators, dose response, artefact control for CCR6 antagonist project, biochemical, E. coli enzyme, set 3 (AID 504712); assay type: functional
[12] = THP-1 cell cytotoxicity, dose response, cytotoxicity control for Vif-APOBEC3G degradation inhibitor project, THP-1 cells (AID 1117359); assay type: functional; conditions: Human immunodeficiency virus 1, THP-1
[13] = target: T5, Leucine aminopeptidase (Plasmodium falciparum 3D7, UniProt Q8IL11); assay: P. falciparum M17LAP inhibitors, primary screen, biochemical, fluorogenic H-Leu-NHMec substrate, 1536-well (AID 1619); assay type: functional
T5 sequence (Q8IL11 whole entry): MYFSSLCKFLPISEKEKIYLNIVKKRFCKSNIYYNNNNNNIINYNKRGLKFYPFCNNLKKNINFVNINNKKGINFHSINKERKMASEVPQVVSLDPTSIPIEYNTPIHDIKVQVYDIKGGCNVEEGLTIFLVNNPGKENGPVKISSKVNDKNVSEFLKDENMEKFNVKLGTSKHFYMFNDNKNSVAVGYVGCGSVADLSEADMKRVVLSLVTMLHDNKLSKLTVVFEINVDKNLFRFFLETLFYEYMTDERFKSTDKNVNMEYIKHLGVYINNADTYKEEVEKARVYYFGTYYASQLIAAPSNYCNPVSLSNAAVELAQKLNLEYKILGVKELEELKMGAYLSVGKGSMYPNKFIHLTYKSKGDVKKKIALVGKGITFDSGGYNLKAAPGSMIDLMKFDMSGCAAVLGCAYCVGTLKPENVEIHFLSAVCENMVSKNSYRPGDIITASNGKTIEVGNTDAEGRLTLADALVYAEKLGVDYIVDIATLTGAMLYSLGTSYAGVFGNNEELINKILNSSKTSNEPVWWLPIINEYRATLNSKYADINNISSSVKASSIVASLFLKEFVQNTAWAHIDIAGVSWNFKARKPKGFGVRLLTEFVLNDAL

[14] = target: T6, RNA-binding protein pos-1 (Caenorhabditis elegans, UniProt G5EF15); assay: inhibitors of POS-1/mex-3 RNA binding, dose response, biochemical, fluorescence polarization (AID 1964);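 note: purified POS-1 fused to maltose binding protein made in E. coli; potency of compounds blocking POS-1 binding to fluorescent RNA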
T6 sequence (G5EF15 whole entry): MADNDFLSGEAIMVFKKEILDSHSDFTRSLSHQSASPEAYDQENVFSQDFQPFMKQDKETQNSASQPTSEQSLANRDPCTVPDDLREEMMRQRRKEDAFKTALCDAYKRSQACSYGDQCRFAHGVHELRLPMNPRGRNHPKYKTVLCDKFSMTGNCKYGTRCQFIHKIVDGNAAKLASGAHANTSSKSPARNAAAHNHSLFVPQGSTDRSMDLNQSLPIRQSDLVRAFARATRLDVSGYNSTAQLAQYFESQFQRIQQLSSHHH

[15] = target: Aspartyl aminopeptidase (Plasmodium falciparum 3D7, UniProt Q8I2J3)
[16] = target: Procathepsin L (Homo sapiens, UniProt P07711)
[17] = target: T7, Zinc finger protein mex-5 (Caenorhabditis elegans, UniProt Q9XUB2); assay: MEX-5/TCR-2 RNA interaction inhibitors, dose response, biochemical, C. elegans, fluorescence polarization (AID 1960)
T7 sequence (Q9XUB2 whole entry): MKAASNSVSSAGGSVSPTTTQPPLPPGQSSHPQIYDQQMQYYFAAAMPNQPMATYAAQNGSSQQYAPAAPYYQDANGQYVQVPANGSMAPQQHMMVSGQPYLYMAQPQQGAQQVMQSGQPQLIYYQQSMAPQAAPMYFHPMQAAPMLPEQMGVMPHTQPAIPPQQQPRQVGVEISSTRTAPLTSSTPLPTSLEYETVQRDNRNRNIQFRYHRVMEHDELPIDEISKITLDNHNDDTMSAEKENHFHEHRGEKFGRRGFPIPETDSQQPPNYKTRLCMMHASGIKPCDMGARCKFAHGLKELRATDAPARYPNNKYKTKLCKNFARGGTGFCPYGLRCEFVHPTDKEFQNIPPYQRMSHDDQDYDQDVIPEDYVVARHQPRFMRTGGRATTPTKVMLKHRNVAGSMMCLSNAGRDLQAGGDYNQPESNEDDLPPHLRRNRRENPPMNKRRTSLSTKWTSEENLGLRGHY

[18] = target: Large T antigen (Simian virus 40, UniProt P03070); assay type: functional, Betapolyomavirus macacae;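 note: Confirmatory-stage PubChem screen for compounds that inhibit SV40 T antigen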
[19] = target: T8, Estrogen receptor beta (Homo sapiens, UniProt Q92731);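 note: recombinant ER-beta bound to coactivator SRC1 peptide in presence of estradiol agonist; inhibitors block coactivator peptide binding and lower the FRET signal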
[20] = target: T8, Estrogen receptor beta; assay: ERβ–SRC-3 coactivator interaction inhibitors, confirmation, orthogonal assay, biochemical, ELISA, streptavidin-HRP readout (AID 1060)

T8 sequence (Q92731 whole entry): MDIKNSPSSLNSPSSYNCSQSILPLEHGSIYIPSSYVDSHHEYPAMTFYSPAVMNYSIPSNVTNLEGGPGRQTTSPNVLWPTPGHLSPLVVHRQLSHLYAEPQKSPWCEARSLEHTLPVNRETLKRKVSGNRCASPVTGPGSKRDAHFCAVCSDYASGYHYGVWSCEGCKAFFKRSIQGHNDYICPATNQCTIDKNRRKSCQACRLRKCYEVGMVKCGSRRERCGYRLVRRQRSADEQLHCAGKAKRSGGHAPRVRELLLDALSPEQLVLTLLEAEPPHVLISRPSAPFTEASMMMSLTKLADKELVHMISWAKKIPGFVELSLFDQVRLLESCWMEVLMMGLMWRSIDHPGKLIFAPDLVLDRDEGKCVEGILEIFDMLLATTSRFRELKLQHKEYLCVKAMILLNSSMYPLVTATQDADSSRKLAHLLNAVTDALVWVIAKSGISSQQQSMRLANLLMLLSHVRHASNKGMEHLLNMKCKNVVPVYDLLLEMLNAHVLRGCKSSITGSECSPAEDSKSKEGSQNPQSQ
Aspartyl aminopeptidase, sequence (Q8I2J3 whole entry): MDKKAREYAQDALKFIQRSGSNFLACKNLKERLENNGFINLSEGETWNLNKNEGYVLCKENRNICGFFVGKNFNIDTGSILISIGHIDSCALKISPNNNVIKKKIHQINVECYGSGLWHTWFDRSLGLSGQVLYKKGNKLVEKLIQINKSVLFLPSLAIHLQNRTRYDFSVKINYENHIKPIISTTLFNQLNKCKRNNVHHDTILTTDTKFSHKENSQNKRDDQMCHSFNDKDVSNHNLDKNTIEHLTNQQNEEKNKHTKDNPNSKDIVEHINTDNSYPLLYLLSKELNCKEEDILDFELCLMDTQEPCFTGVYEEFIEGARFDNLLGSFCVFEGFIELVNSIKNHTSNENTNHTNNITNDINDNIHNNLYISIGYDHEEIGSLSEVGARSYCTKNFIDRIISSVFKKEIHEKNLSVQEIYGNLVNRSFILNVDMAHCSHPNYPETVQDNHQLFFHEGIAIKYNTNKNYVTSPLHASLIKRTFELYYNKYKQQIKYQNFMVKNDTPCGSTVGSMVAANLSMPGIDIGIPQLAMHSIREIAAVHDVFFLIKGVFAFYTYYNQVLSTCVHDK
Glyceraldehyde-3-phosphate dehydrogenase, sequence (P04406 whole entry): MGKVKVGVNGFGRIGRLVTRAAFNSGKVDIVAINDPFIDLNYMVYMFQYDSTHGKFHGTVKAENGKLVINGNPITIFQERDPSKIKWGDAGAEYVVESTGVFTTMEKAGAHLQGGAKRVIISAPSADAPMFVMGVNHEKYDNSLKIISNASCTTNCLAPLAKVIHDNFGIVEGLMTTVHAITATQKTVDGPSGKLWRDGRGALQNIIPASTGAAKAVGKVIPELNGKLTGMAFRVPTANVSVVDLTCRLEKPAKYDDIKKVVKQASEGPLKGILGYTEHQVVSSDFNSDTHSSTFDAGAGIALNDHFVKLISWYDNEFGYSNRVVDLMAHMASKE
Procathepsin L, sequence (P07711 whole entry): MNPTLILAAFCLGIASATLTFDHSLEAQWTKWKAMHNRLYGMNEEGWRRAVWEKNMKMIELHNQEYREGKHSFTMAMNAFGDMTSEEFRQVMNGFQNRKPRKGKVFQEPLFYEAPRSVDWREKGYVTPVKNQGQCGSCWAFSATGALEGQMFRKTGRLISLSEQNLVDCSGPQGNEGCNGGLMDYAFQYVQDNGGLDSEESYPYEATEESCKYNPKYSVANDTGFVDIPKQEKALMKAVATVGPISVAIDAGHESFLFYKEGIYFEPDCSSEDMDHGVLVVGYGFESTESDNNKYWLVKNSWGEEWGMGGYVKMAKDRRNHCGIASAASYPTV
Beta-galactosidase, sequence (Q8VNN2 whole entry): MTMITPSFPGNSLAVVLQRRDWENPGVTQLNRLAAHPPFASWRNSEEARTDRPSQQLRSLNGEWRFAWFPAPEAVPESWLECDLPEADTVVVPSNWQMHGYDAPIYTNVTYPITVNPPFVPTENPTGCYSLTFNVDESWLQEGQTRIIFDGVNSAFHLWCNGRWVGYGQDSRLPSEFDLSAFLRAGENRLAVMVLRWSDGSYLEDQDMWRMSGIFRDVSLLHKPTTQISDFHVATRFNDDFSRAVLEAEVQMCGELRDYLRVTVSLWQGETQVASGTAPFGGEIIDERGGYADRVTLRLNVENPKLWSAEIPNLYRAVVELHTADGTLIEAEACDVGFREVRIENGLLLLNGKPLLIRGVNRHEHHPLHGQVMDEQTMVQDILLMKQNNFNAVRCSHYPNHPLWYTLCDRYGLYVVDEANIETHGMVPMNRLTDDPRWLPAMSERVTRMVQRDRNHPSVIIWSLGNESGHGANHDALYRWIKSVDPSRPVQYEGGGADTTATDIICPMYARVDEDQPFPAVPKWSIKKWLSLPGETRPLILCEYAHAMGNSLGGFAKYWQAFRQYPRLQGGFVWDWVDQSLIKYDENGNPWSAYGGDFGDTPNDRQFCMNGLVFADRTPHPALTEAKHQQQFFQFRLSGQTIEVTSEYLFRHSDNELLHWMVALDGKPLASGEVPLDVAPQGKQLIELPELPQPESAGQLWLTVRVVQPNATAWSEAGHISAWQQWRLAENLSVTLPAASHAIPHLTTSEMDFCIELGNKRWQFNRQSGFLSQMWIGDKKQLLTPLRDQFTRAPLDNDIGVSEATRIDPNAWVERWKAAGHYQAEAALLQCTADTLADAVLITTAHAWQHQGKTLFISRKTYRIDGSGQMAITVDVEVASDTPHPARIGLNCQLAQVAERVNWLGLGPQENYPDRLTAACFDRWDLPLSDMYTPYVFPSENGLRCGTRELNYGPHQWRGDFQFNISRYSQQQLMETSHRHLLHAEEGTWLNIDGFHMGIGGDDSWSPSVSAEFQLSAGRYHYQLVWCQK
Heat shock cognate 71 kDa protein, sequence (P11142 whole entry): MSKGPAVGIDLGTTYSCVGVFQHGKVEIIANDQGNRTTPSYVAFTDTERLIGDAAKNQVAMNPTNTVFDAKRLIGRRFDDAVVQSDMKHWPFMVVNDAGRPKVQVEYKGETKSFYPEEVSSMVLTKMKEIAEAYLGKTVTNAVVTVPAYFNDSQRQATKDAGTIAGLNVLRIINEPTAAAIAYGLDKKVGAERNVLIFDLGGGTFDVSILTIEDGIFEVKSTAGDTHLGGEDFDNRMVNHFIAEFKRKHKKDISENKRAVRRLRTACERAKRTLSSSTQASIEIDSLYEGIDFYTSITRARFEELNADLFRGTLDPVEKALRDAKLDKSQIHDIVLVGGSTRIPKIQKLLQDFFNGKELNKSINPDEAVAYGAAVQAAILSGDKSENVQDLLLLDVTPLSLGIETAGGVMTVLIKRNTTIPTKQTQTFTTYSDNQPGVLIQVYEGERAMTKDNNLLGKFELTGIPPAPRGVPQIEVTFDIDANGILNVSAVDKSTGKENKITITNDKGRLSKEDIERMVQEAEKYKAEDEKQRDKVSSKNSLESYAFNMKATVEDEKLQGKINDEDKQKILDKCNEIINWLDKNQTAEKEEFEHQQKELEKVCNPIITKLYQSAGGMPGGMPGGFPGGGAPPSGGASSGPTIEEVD
C-C chemokine receptor type 6, sequence (P51684 whole entry): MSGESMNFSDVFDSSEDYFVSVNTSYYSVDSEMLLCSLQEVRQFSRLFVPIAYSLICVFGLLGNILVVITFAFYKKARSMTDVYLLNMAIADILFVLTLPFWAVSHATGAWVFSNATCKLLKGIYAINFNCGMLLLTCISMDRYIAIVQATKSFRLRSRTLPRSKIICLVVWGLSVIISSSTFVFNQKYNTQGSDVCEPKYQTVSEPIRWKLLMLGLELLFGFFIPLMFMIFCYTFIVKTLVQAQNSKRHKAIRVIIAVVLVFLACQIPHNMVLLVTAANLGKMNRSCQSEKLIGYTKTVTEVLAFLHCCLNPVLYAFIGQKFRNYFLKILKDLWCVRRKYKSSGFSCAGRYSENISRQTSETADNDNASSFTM
Large T antigen, sequence (P03070 whole entry): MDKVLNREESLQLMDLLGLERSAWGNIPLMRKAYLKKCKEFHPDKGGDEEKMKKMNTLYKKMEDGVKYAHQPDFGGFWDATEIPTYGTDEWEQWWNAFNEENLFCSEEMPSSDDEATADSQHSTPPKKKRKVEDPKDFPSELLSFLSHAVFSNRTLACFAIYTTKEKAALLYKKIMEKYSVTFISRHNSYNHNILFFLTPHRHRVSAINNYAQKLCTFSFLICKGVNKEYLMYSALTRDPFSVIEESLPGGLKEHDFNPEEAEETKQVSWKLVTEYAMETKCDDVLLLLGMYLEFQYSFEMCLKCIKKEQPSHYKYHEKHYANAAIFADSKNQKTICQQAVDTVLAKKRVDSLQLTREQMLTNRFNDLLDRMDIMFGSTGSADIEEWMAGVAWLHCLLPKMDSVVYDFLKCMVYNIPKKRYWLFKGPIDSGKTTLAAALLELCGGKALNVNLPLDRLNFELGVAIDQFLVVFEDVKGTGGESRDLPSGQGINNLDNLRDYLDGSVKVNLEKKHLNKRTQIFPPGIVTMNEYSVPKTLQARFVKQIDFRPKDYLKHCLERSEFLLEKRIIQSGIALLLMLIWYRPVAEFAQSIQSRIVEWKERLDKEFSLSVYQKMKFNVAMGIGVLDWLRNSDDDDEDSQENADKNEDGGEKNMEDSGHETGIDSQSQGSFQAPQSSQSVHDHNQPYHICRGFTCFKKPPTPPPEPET

Compound: COc1ccc(-n2nc3ccc(NS(C)(=O)=O)cc3n2)cc1Cl
EC50 [1]: > 35.4 µM (not active) | IC50 [2]: > 35.4 µM (not active) | EC50 [3]: > 35.4 µM (not active)

IC50 [4]: 2.04 µM (active) | IC50 [5]: 76.8 µM (active) | IC50 [6]: 95.2 µM (active) | IC50 [7]: 43.9 µM (active) | IC50 [8]: 20.3 µM (active) | IC50 [9]: 24.7 µM (active)
Compound: O=C(Oc1ccc2ccccc2c1)c1ccc2c(c1)C1C=CCC1C(C(=O)O)N2 (stereo not given)

Compound: CC(=O)OC(C)C1C2=C(C(=O)CC1(C)O)C(=O)c1c(ccc(-c3ccc4c(c3O)C(=O)C3=C(C4=O)C(C(C)OC(C)=O)C(C)(O)CC3=O)c1O)C2=O (stereo not given)
IC50 [10]: > 66.6 µM (inactive) | IC50 [11]: > 66.6 µM (inactive) | CC50 [12]: 19.3 µM (active)

IC50 [13]: 25.1 µM (active) | EC50 [14]: 36.6 µM (active) | IC50 [15]: 1.3 µM (active) | IC50 [16]: > 59.6 µM (not active) | EC50 [17]: 21.3 µM (active) | IC50 [18]: 6.46 µM (active) | IC50 [19]: 10.2 µM (active) | IC50 [20]: 87.3 µM (not active)
Compound: Cc1nc(-c2ccc(O)c(O)c2)cs1
